Measurements from patent publication US9353101B2 (Merck Sharp & Dohme Corp., priority 2012, dated 2016).

biological target: CETP (Homo sapiens (Human), UniProt P11597); assay: In vitro radioactive assay of CETP-catalyzed CE and TG transfer (RTA assay), 95% human serum; assay type: biochemical; conditions: RTA assay in 95% human serum; read-out: RTA IC50 (CETP Inhibition)
Method: In Vitro Radioactive Assays of CETP-Catalyzed CE and TG Transfer (RTA Assay)
Reagents and sources are: [3H] cholesteryl oleate (GE #TRK.886), [3H] Triolein (Perkin-Elmer NET-431), Butylated hydroxyl toluene (Aldrich, #D4740-4), DOPC (Sigma, # P6354), Sodium Bromide (Fisher scientific #S255-500), PEG 8000 (Fisher, #BP233-1), and human HDL (Intracel Corp #RP-036).
An in vitro assay for determining IC50's to identify compounds that inhibit CETP transfer activity is performed based on a modification of a published method (Morton and Zilversmit, (1981) A plasma inhibitor of triglyceride and cholesteryl ester transfer activities, J. Biol. Chem. 256(23), 11992-11995). The ability of inhibitors to alter CETP activity is performed using two different assays: one using recombinant CETP and one using an endogenous plasma source of CETP. Both assays measure the transfer of [3H] cholesteryl oleate or [3H] triolein from exogenous LDL to HDL.
Radiolabeled donor particles are generated by first combining 100 μl of 200 μM butylated hydroxyl toluene in CHCl3, 216 μL of 21.57 mM DOPC in EtOH, and either 500 μCi [3H]-triolein (Perkin Elmer #NET-431) or 500 μCi [3H]-cholesteryl oleate (GE #TRK886) in a glass tube. Reagents are mixed, dried under nitrogen, and then resuspended in 2 mL of 50 mM Tris, 27 μM EDTA at pH 7.4. After a brief vortex, the solution is sonicated until clear and mixed with 20 mL of fresh human serum. The mixture is incubated overnight at 37° C. The [3H] labeled LDL substrate is separated at 1.063 g/ml density by sequential ultracentrifugal flotation in NaBr according to the method by (Havel, Eder et al. 1955; Chapman, Goldstein et al. 1981). Once isolated the particles are dialyzed 3× in CETP buffer (50 mM Tris, pH 7.4, 100 mM NaCl, 1 mM EDTA). Human HDL is purchased from Intracel and used as the acceptor particles.
Transfer assays are performed in a 96 or 384-well v-bottom polypropylene plate. For the RTA using recombinant CETP (2% RTA), an assay cocktail is prepared with the final concentrations 128 μg/mL HDL, 20 nM rCETP, 2% human serum, and 1×CETP buffer. 1 μL of each test compound diluted in DMSO is added to 47 μL of assay cocktail per well and incubated at 37° C. for 1 hour. To initiate the transfer reaction, 2 μL radiolabeled LDL is added. After an additional 60 min of incubation at 37° C., the transfer action is terminated by precipitation of LDL with an equal volume of 20% W/V PEG 8000. The plates are centrifuged at 2000 rpm for 30 minutes at 4° C. A 40 μL aliquot of the HDL-containing supernatant is transferred to a Packard Optiplate™ with 200 μL of MicroScint™ 20. After mixing, plates are counted by liquid scintillation. Counts present in the supernatant for blanks (wells containing only HDL acceptor, CETP buffer and DMSO) are subtracted from those containing test compounds and used to correct for non-specific transfer.
For the transfer assay using endogenous CETP from serum (95% RTA), the same procedure is used except that human serum is added such that a final concentration of serum of 95% of the total assay volume is achieved, yielding a concentration of approximately 15 nM endogenous CETP in the assay. This is then combined with HDL and CETP buffer and the reaction proceeds as above and is terminated as described.
Comparison of the counts of samples with inhibitors to an uninhibited (DMSO only) positive control yield a percent inhibition. A plot of percent inhibition vs. log of inhibitor concentration, fit to a Sigmoidal 4 parameter equation is used to calculate IC50.
Starting materials are commercially available or are made using known procedures or as shown below. The examples may be synthesized using the general schemes provided below. The data reported for the examples below were obtained using the RTA assay in 95% human serum.

CETP, sequence (P11597 18-493 limits assumed): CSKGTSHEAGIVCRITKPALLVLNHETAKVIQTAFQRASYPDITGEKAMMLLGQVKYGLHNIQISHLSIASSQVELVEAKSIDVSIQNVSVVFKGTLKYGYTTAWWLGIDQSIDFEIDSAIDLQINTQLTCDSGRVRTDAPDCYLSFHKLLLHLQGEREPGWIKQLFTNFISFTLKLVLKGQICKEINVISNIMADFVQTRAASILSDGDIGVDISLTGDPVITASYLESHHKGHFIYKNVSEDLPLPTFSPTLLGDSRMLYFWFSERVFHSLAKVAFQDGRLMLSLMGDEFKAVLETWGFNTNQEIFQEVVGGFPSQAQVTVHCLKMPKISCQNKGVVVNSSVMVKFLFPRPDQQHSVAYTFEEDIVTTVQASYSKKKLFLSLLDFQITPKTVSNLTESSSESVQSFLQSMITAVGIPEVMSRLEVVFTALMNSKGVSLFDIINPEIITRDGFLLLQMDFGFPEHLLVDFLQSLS

Compound	IC50 [nM]
COc1ncc(-c2c(C)cc(C(=O)O)cc2C)cc1-c1cnc(N2CCOCC2)nc1CN1C(=O)O[C@H](c2cc(C(F)(F)F)cc(C(F)(F)F)c2)[C@@H]1C [Example 34, 4-{5-[4-({(4S,5R)-5-[3,5-Bis(trifluoromethyl)phenyl]-4-methyl-2-oxo-1,3-oxazolidin-3-yl}methyl)-2-(morpholin-4-yl)pyrimidin-5-yl]-6-methoxypyridin-3-yl}-3,5-dimethylbenzoic acid]	10
COc1ncc(-c2c(C)cc(-c3n[nH]c(=O)o3)cc2C)cc1-c1cnc(N2CCOCC2)nc1CN1C(=O)O[C@H](c2cc(C(F)(F)F)cc(C(F)(F)F)c2)[C@@H]1C [Example 35, 5-(4-{5-[4-({(4S,5R)-5-[3,5-Bis(trifluoromethyl)phenyl]-4-methyl-2-oxo-1,3-oxazolidin-3-yl}methyl)-2-(morpholin-4-yl)pyrimidin-5-yl]-6-methoxypyridin-3-yl}-3,5-dimethylphenyl)-1,3,4-oxadiazol-2(3H)-one]	10
COc1ncc(-c2ccc(C(=O)O)cc2C)cc1-c1cnc(N2CC(F)C2)nc1CN1C(=O)O[C@H](c2cc(C(F)(F)F)cc(C(F)(F)F)c2)[C@@H]1C [Example 36, 4-{5-[4-({(4S,5R)-5-[3,5-Bis(trifluoromethyl)phenyl]-4-methyl-2-oxo-1,3-oxazolidin-3-yl}methyl)-2-(3-fluoroazetidin-1-yl)pyrimidin-5-yl]-6-methoxypyridin-3-yl}-3-methylbenzoic acid]	12
COc1ncc(-c2ccc(C(=O)Nc3nnn[nH]3)cc2C)cc1-c1cnc(N2CC(F)C2)nc1CN1C(=O)O[C@H](c2cc(C(F)(F)F)cc(C(F)(F)F)c2)[C@@H]1C [Example 37, 4-{5-[4-({(4S,5R)-5-[3,5-Bis(trifluoromethyl)phenyl]-4-methyl-2-oxo-1,3-oxazolidin-3-yl}methyl)-2-(3-fluoroazetidin-1-yl)pyrimidin-5-yl]-6-methoxypyridin-3-yl}-3-methyl-N-(1H-tetrazol-5-yl)benzamide]	10
COc1ncc(-c2ccc(-c3n[nH]c(=O)o3)cc2C)cc1-c1cnc(N2CC(F)C2)nc1CN1C(=O)O[C@H](c2cc(C(F)(F)F)cc(C(F)(F)F)c2)[C@@H]1C [Example 38, 5-(4-{5-[4-({(4S,5R)-5-[3,5-Bis(trifluoromethyl)phenyl]-4-methyl-2-oxo-1,3-oxazolidin-3-yl}methyl)-2-(3-fluoroazetidin-1-yl)pyrimidin-5-yl]-6-methoxypyridin-3-yl}-3-methylphenyl)-1,3,4-oxadiazol-2(3H)-one]	12
COc1ncc(-c2ccc(C(=O)O)cc2C)cc1-c1cnc(N2CCOCC2)nc1CN1C(=O)O[C@H](c2cc(C(F)(F)F)cc(C(F)(F)F)c2)[C@@H]1C [Example 39, 4-{5-[4-({(4S,5R)-5-[3,5-Bis(trifluoromethyl)phenyl]-4-methyl-2-oxo-1,3-oxazolidin-3-yl}methyl)-2-(morpholin-4-yl)pyrimidin-5-yl]-6-methoxypyridin-3-yl}-3-methylbenzoic acid]	13
COc1ncc(-c2ccc(-c3n[nH]c(=O)o3)cc2C)cc1-c1cnc(N2CCOCC2)nc1CN1C(=O)O[C@H](c2cc(C(F)(F)F)cc(C(F)(F)F)c2)[C@@H]1C [Example 40, 5-(4-{5-[4-({(4S,5R)-5-[3,5-Bis(trifluoromethyl)phenyl]-4-methyl-2-oxo-1,3-oxazolidin-3-yl}methyl)-2-(morpholin-4-yl)pyrimidin-5-yl]-6-methoxypyridin-3-yl}-3-methylphenyl)-1,3,4-oxadiazol-2(3H)-one]	29
COc1ncc(-c2ccc(C(=O)Nc3nnn[nH]3)cc2C)cc1-c1cnc(N2CCOCC2)nc1CN1C(=O)O[C@H](c2cc(C(F)(F)F)cc(C(F)(F)F)c2)[C@@H]1C [Example 41, 4-{5-[4-({(4S,5R)-5-[3,5-Bis(trifluoromethyl)phenyl]-4-methyl-2-oxo-1,3-oxazolidin-3-yl}methyl)-2-(morpholin-4-yl)pyrimidin-5-yl]-6-methoxypyridin-3-yl}-3-methyl-N-(1H-tetrazol-5-yl)benzamide]	11
COc1ncc(-c2ccc(C(=O)O)cc2C)cc1-c1cnc(N2CC(F)(F)C2)nc1CN1C(=O)O[C@H](c2cc(C(F)(F)F)cc(C(F)(F)F)c2)[C@@H]1C [Example 42, 4-{5-[4-({(4S,5R)-5-[3,5-Bis(trifluoromethyl)phenyl]-4-methyl-2-oxo-1,3-oxazolidin-3-yl}methyl)-2-(3,3-difluoroazetidin-1-yl)pyrimidin-5-yl]-6-methoxypyridin-3-yl}-3-methylbenzoic acid]	9
COc1ncc(-c2ccc(C(=O)O)cc2C)cc1-c1cnc(-n2ccnc2)nc1CN1C(=O)O[C@H](c2cc(C(F)(F)F)cc(C(F)(F)F)c2)[C@@H]1C [Example 43, 4-{5-[4-({(4S,5R)-5-[3,5-Bis(trifluoromethyl)phenyl]-4-methyl-2-oxo-1,3-oxazolidin-3-yl}methyl)-2-(1H-imidazol-1-yl)pyrimidin-5-yl]-6-methoxypyridin-3-yl}-3-methylbenzoic acid]	109
COc1ncc(-c2ccc(C(=O)O)cc2C)cc1-c1cnc(N2CC(F)C2)nc1CN1C(=O)O[C@H](c2cc(F)cc(F)c2)[C@@H]1C [Example 44, 4-{5-[4-{[(4S,5R)-5-(3,5-Difluorophenyl)-4-methyl-2-oxo-1,3-oxazolidin-3-yl]methyl}-2-(3-fluoroazetidin-1-yl)pyrimidin-5-yl]-6-methoxypyridin-3-yl}-3-methylbenzoic acid]	35
COc1ncc(-c2ccc(C(=O)O)cc2C)cc1-c1cnc(N2CC(F)C2)nc1CN1C(=O)O[C@H](c2cccc(OC(F)(F)F)c2)[C@@H]1C [Example 45, 4-{5-[2-(3-Fluoroazetidin-1-yl)-4-({(4S,5R)-4-methyl-2-oxo-5-[3-(trifluoromethoxy)phenyl]-1,3-oxazolidin-3-yl}methyl)pyrimidin-5-yl]-6-methoxypyridin-3-yl}-3-methylbenzoic acid]	50
COc1ncc(-c2ccc(C(=O)O)cc2C)cc1-c1cnc(N2CC(F)C2)nc1CN1C(=O)O[C@H](c2cc(F)cc(C(F)(F)F)c2)[C@@H]1C [Example 46, 4-{5-[2-(3-Fluoroazetidin-1-yl)-4-({(4S,5R)-5-[3-fluoro-5-(trifluoromethyl)phenyl]-4-methyl-2-oxo-1,3-oxazolidin-3-yl}methyl)pyrimidin-5-yl]-6-methoxypyridin-3-yl}-3-methylbenzoic acid]	12
COc1ncc(-c2ccc(C(=O)O)cc2C)cc1-c1cnc(N2CC(F)(F)C2)nc1CN1C(=O)O[C@H](c2cc(F)cc(C(F)(F)F)c2)[C@@H]1C [Example 47, 4-{5-[2-(3,3-Difluoroazetidin-1-yl)-4-({(4S,5R)-5-[3-fluoro-5-(trifluoromethyl)phenyl]-4-methyl-2-oxo-1,3-oxazolidin-3-yl}methyl)pyrimidin-5-yl]-6-methoxypyridin-3-yl}-3-methylbenzoic acid]	9
COc1ncc(-c2c(C)cc(C(=O)O)cc2C)cc1-c1cnc(N2CC(F)C2)nc1CN1C(=O)O[C@H](c2cc(F)cc(C(F)(F)F)c2)[C@@H]1C [Example 48, 4-{5-[2-(3-Fluoroazetidin-1-yl)-4-({(4S,5R)-5-[3-fluoro-5-(trifluoromethyl)phenyl]-4-methyl-2-oxo-1,3-oxazolidin-3-yl}methyl)pyrimidin-5-yl]-6-methoxypyridin-3-yl}-3,5-dimethylbenzoic acid]	15
